We go through one compound from patent publication US12503453B2, “USP7 inhibition” (Dana-Farber Cancer Institute, Inc., priority 2018, dated 2025).

SMILES strings stand for the structures. Read-outs that look alike come from different tables or passages of the source.

By IC50 is commonly meant the midpoint of a concentration-inhibition curve.

In one experiment the target is USP7 (Homo sapiens (Human), UniProt Q93009). Nature of the experiment: Competitive ABPP with HA-Ub-VS in MCF7 crude cell extracts. The settings on record: read-out: IC50 of inhibition of HA-Ub-VS labeling. Format: binding. As to the method:
HA-Ub-VS experiments were performed as previously described in Lamberto, I. et al. Structure-Guided Development of a Potent and […] Selective Non-covalent Active-Site Inhibitor of USP7. Cell Chem. Biol. 24, 1490-1500 (2017). Briefly, target engagement lysis buffer (50 mM Tris pH 8.0, 150 mM NaCl, 5 mM MgCl2, 0.5 mM EDTA, 0.5% NP-40, 10% glycerol, 1 mM TCEP, protease and phosphatase inhibitors) was added to cell pellets on ice. Lysate was cleared by centrifugation and diluted to 1.67 mg/mL. Where indicated, 30 μL lysate was then incubated with inhibitors or DMSO for the indicated timepoints. 1 μM HA-Ub-VS was then added to the lysate and incubated at RT for the indicated time points. Labeling reactions were quenched with 4×LDS sample buffer (Thermo Fisher B0007) supplemented with 10% BME, vortexed vigorously, and heated to 95° C. for 5 minutes. Samples were resolved by SDS-PAGE and analyzed by Western blot with the indicated antibodies.

A further experiment concerns the target USP7 catalytic domain (Homo sapiens (Human), UniProt Q93009). Nature of the experiment: MS labeling of purified USP7 catalytic domain (intact MS, CE-MS). Format: binding. As to the method: Purified USP7 catalytic domain was diluted to 20 μM in 10 μL labeling buffer (20 mM HEPES pH 7.5, 150 mM NaCl, 1 mM TCEP) and incubated for the indicated times with 50 μM (2.5×) compound. After incubation, samples were flash frozen in liquid nitrogen and stored at −80° C. until analysis.
Intact mass analysis was performed by injecting 5 μg USP7 catalytic domain onto a self-packed reversed phase column ( 1/32″ O.D.×500 um I.D., 5 cm of POROS 10R2 resin). After desalting, protein was eluted with an HPLC gradient (0-100% B in 4 minutes, A=0.2M acetic acid in water, B=0.2 M acetic acid in acetonitrile, flow rate ˜30 μL/min) into an LTQ ion trap mass spectrometer (ThermoFisher Scientific, San Jose, CA). Mass spectra were deconvoluted using MagTran1.03b2 software. Zhang, Z. & Marshall, A. G. A universal algorithm for fast and automated charge state deconvolution of electrospray mass-to-charge ratio spectra. J. Am. Soc. Mass Spectrom. 9, 225-233 (1998).
To identify sites of covalent modification, treated protein was reduced (10 mM dithiothreitol), alkylated (22.5 mM iodoacetamide), and digested with trypsin overnight at 37° C. Peptides were desalted using SP3 (Hughes, C. S. et al. Ultrasensitive proteome analysis using paramagnetic bead technology. Mol. Syst. Biol. 10, 757-757 (2014)), dried by vacuum centrifugation, and reconstituted in 1% formic acid/50% acetonitrile with 100 mM ammonium acetate. Peptides were then analyzed by CE-MS using a ZipChip CE system and autosampler (908 Devices, Boston, MA) interfaced to a QExactive HF mass spectrometer (ThermoFisher Scientific, San Jose, CA). Peptide solution was loaded for 30 seconds, and the mass spectrometer was operated in data dependent mode and subjected the 5 most abundant ions in each MS scan (60 k resolution, 3E6 target, lock mass enabled) to MS/MS (15 k resolution, 1E5 target, 100 ms max inject time). Dynamic exclusion was enabled with a repeat count of 1 and an exclusion time of 6 seconds. […]

USP7, sequence (Q93009 whole entry): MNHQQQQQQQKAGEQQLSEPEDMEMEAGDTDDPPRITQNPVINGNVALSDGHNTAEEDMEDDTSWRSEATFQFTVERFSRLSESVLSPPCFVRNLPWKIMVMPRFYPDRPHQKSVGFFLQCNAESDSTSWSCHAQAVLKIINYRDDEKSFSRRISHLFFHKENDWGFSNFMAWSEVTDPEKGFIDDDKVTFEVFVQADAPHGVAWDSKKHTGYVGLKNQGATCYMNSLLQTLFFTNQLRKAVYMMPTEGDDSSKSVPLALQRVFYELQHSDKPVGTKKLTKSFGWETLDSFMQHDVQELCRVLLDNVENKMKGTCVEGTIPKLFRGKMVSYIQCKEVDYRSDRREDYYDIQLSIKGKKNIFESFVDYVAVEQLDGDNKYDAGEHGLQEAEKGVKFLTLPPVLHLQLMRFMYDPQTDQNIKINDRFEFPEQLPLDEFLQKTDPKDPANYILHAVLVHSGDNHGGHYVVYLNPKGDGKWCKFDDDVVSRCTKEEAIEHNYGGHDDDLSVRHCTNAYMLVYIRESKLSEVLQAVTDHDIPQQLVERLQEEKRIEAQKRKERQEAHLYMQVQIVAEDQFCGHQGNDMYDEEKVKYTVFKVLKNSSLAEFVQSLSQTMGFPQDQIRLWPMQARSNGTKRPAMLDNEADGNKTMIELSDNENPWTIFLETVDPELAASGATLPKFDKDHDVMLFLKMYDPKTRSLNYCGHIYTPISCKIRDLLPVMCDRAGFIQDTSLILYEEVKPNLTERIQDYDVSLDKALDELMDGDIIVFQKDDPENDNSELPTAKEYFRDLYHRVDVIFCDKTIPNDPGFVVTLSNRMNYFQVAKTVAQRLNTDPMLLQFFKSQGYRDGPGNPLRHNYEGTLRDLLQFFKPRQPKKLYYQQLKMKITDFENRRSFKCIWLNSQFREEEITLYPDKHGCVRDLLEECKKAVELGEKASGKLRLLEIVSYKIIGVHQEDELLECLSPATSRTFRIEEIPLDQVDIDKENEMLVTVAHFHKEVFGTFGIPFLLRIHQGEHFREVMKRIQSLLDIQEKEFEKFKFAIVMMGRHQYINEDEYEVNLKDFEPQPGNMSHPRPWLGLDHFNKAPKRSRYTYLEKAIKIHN
USP7 catalytic domain, sequence (Q93009 208-560): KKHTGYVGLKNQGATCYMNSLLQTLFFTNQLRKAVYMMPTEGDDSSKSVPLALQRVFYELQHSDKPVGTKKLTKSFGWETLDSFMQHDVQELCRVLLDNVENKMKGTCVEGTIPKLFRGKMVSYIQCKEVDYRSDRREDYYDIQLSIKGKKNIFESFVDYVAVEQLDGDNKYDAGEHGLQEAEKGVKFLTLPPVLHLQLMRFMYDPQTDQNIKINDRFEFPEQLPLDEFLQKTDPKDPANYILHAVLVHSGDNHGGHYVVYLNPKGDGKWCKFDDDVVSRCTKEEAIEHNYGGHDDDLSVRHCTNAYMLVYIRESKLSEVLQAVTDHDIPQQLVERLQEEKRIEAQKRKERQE

For `CN1CCN(CCC(=O)Nc2ccc3c(=O)n(CC4(O)CCN(C(=O)[C@@H](CCCNC(=O)c5ccc6c(Cl)c7c(nc6c5)CCCC7)Cc5ccccc5)CC4)cnc3c2)CC1` [compound 6, (S)—N-(4-benzyl-5-(4-hydroxy-4-((7-(3-(4-methylpiperazin-1-yl)propanamido)-4-oxoquinazolin-3(4H)-yl)methyl)piperidin-1-yl)-5-oxopentyl)-9-chloro-5,6,7,8-tetrahydroacridine-3-carboxamide], the IC50 on USP7 (30 min preincubation) is 85 nM; on USP7 (4 hr preincubation), 8 nM. Further, at USP7 catalytic domain, the “site of covalent modification (MS/MS)” value is reported as “binding to the catalytic residue, C223”. Further, the “labeling of USP7 catalytic domain by MS” value at USP7 catalytic domain (15 minutes incubation) was “Quantitative labeling of USP7”.
